Values after ≈ are worked out from the molar mass of the structure shown.
What was measured:
Format in all cases: functional
[1] = tested on: Mycobacterium tuberculosis; test: Antimycobacterial activity against Mycobacterium tuberculosis H37Ra UAlRa incubated for 6 days by luminescence based assay; conditions: 144 h
[2] = tested on: Mycobacterium tuberculosis; test: Antimycobacterial activity against Mycobacterium tuberculosis K18
[3] = tested on: Mycobacterium tuberculosis; test: Antimycobacterial activity against Mycobacterium tuberculosis K5
[4] = tested on: Mycobacterium tuberculosis; test: Antimycobacterial activity against Mycobacterium tuberculosis K4
[5] = tested on: Mycobacterium tuberculosis; test: Antimycobacterial activity against Mycobacterium tuberculosis K12
[6] = tested on: Mycobacterium tuberculosis; test: Antimycobacterial activity against Mycobacterium tuberculosis K2
[7] = tested on: Mycobacterium tuberculosis; test: Antimycobacterial activity against Mycobacterium tuberculosis K16
[8] = tested on: Mycobacterium tuberculosis; test: Antimycobacterial activity against Mycobacterium tuberculosis H37Rv

O=C(NCc1ccc(F)cc1)c1cc2c(o1)C(=O)c1ccccc1C2=O
MIC [1]: 1.8 µM (≈ 0.629 µg/mL)

O=C(NC1CCCCC1)c1cc2c(o1)C(=O)c1ccccc1C2=O
MIC [1]: 7.7 µM (≈ 2.49 µg/mL)

CC(=O)c1cc2c(o1)C(=O)c1ccccc1C2=O [NAPABUCASIN]
MIC [1]: 10.4 µM (≈ 2.5 µg/mL)

Cn1cccc1/C=C/C(=O)c1cc2c(o1)C(=O)c1ccccc1C2=O
MIC [1]: ≥ 30.4 µM

O=C1c2ccccc2C(=O)c2oc(C(=O)N3CCC(c4ccc(F)cc4)CC3)cc21
MIC [1]: ≥ 24.9 µM

O=C1c2ccccc2C(=O)c2oc(C(=O)N3CCN(c4cccc(C(F)(F)F)c4)CC3)cc21
MIC [2]: 2.5 µg/mL (≈ 5.5 µM) | MIC [3]: 25 µg/mL (≈ 55 µM) | MIC [4]: 25 µg/mL (≈ 55 µM) | MIC [5]: 1 µg/mL (≈ 2.2 µM) | MIC [6]: 0.5 µg/mL (≈ 1.1 µM) | MIC [7]: 1 µg/mL (≈ 2.2 µM) | MIC [1]: 2.7 µM (≈ 1.23 µg/mL) | MIC [8]: 1 µg/mL (≈ 2.2 µM)

O=C1CCN(C(=O)c2cc3c(o2)C(=O)c2ccccc2C3=O)CC1
MIC [1]: 7.7 µM (≈ 2.49 µg/mL)

O=C(NCCN1CCCCC1)c1cc2c(o1)C(=O)c1ccccc1C2=O
MIC [1]: 3.6 µM (≈ 1.27 µg/mL)

CC(O)c1cc2c(o1)C(=O)c1ccccc1C2=O (configuration not stated)
MIC [1]: 41.2 µM (≈ 9.98 µg/mL)

CC(Br)c1cc2c(o1)C(=O)c1ccccc1C2=O (configuration not stated)
MIC [1]: 16.5 µM (≈ 5.03 µg/mL)

CCN1CCN(C(=O)c2cc3c(o2)C(=O)c2ccccc2C3=O)CC1
MIC [1]: 7.4 µM (≈ 2.5 µg/mL)

O=C(NCc1cccc(F)c1)c1cc2c(o1)C(=O)c1ccccc1C2=O
MIC [1]: 0.9 µM (≈ 0.314 µg/mL)

O=C(NCCc1ccccc1)c1cc2c(o1)C(=O)c1ccccc1C2=O
MIC [1]: ≥ 28.9 µM

O=C1c2ccccc2C(=O)c2oc(C(=O)N3CCSCC3)cc21
MIC [2]: 0.5 µg/mL (≈ 1.53 µM) | MIC [3]: 4 µg/mL (≈ 12.2 µM) | MIC [4]: 2 µg/mL (≈ 6.11 µM) | MIC [5]: 0.5 µg/mL (≈ 1.53 µM) | MIC [6]: 0.25 µg/mL (≈ 0.764 µM) | MIC [7]: 0.5 µg/mL (≈ 1.53 µM) | MIC [1]: 1.9 µM (≈ 0.622 µg/mL) | MIC [8]: 0.5 µg/mL (≈ 1.53 µM)

O=C(NCc1ccccc1F)c1cc2c(o1)C(=O)c1ccccc1C2=O
MIC [1]: 1.8 µM (≈ 0.629 µg/mL)

O=C1c2ccccc2C(=O)c2oc(C(=O)N3CCOCC3)cc21
MIC [1]: 4 µM (≈ 1.25 µg/mL)

O=C(/C=C/c1ccc(O)cc1)c1cc2c(o1)C(=O)c1ccccc1C2=O
MIC [1]: ≥ 29.1 µM

O=C(NCCc1ccc(F)cc1)c1cc2c(o1)C(=O)c1ccccc1C2=O
MIC [1]: 1.7 µM (≈ 0.618 µg/mL)

CC(c1cc2c(o1)C(=O)c1ccccc1C2=O)N1CCCCC1 (configuration not stated)
MIC [1]: 32.3 µM (≈ 9.99 µg/mL)

CC1(C)CCC(NC(=O)c2cc3c(o2)C(=O)c2ccccc2C3=O)CC1
MIC [2]: 2.5 µg/mL (≈ 7.11 µM) | MIC [3]: 25 µg/mL (≈ 71.1 µM) | MIC [4]: 25 µg/mL (≈ 71.1 µM) | MIC [5]: 2.5 µg/mL (≈ 7.11 µM) | MIC [6]: 0.25 µg/mL (≈ 0.711 µM) | MIC [7]: 2.5 µg/mL (≈ 7.11 µM) | MIC [1]: 3.56 µM (≈ 1.25 µg/mL) | MIC [8]: 0.5 µg/mL (≈ 1.42 µM)

CC(c1cc2c(o1)C(=O)c1ccccc1C2=O)N1CCOCC1 (configuration not stated)
MIC [1]: 32.1 µM (≈ 9.99 µg/mL)

O=C(/C=C/c1cccs1)c1cc2c(o1)C(=O)c1ccccc1C2=O
MIC [1]: 29.9 µM (≈ 10 µg/mL)

O=C(NCCc1ccc(Cl)cc1)c1cc2c(o1)C(=O)c1ccccc1C2=O
MIC [1]: 6.6 µM (≈ 2.51 µg/mL)

O=C1c2ccccc2C(=O)c2oc(C(=O)N3CCCCC3)cc21
MIC [2]: 2.5 µg/mL (≈ 8.08 µM) | MIC [3]: 12.5 µg/mL (≈ 40.4 µM) | MIC [4]: 12.5 µg/mL (≈ 40.4 µM) | MIC [5]: 1 µg/mL (≈ 3.23 µM) | MIC [6]: 0.5 µg/mL (≈ 1.62 µM) | MIC [7]: 1 µg/mL (≈ 3.23 µM) | MIC [1]: 2 µM (≈ 0.619 µg/mL) | MIC [8]: 0.5 µg/mL (≈ 1.62 µM)

O=C1c2ccccc2C(=O)c2oc(C(=O)N3CCC(c4cccc(Cl)c4)CC3)cc21
MIC [1]: ≥ 23.9 µM

COC(=O)CC1CCN(C(=O)c2cc3c(o2)C(=O)c2ccccc2C3=O)CC1
MIC [1]: 3.28 µM (≈ 1.25 µg/mL)

O=C(NCCc1cccc(F)c1)c1cc2c(o1)C(=O)c1ccccc1C2=O
MIC [1]: 0.9 µM (≈ 0.327 µg/mL)

O=C(/C=C/c1ccccc1)c1cc2c(o1)C(=O)c1ccccc1C2=O
MIC [1]: ≥ 30.4 µM

O=C(NCCN1CCOCC1)c1cc2c(o1)C(=O)c1ccccc1C2=O
MIC [1]: 7.1 µM (≈ 2.52 µg/mL)

O=C(NCCc1ccccc1F)c1cc2c(o1)C(=O)c1ccccc1C2=O
MIC [2]: 2.5 µg/mL (≈ 6.88 µM) | MIC [3]: 12.5 µg/mL (≈ 34.4 µM) | MIC [4]: 12.5 µg/mL (≈ 34.4 µM) | MIC [5]: 2.5 µg/mL (≈ 6.88 µM) | MIC [6]: 0.5 µg/mL (≈ 1.38 µM) | MIC [7]: 2.5 µg/mL (≈ 6.88 µM) | MIC [1]: 1.7 µM (≈ 0.618 µg/mL) | MIC [8]: 0.5 µg/mL (≈ 1.38 µM)

CN1CCN(C(=O)c2cc3c(o2)C(=O)c2ccccc2C3=O)CC1
MIC [1]: 7.7 µM (≈ 2.5 µg/mL)

O=C1c2ccccc2C(=O)c2oc(C(=O)N3CCCC3)cc21
MIC [1]: 4.2 µM (≈ 1.24 µg/mL)

Source: ChEMBL document CHEMBL4334434, “Discovery of napabucasin derivatives for the treatment of tuberculosis” (2019)
